Numbers after ± are expanded uncertainties.
Legend:
[1] = 100 kPa, Liquid; for viscosity: Falling or rolling sphere viscometry; for mass density: Vibrating tube method
[2] = xn = mol fraction of the nth substance listed; conditions: 100 kPa, Liquid, x2 = 0; for viscosity: Falling or rolling sphere viscometry; for mass density: Vibrating tube method

Row | SMILES | viscosity ([1]; 293.15 K) [mPa·s] | mass density ([1]; 293.15 K) [kg/m3] | viscosity ([1]; 298.15 K) [mPa·s] | mass density ([1]; 298.15 K) [kg/m3] | viscosity ([1]; 303.15 K) [mPa·s] | mass density ([1]; 303.15 K) [kg/m3] | viscosity ([1]; 308.15 K) [mPa·s] | mass density ([1]; 308.15 K) [kg/m3] | viscosity ([1]; 313.15 K) [mPa·s] | mass density ([1]; 313.15 K) [kg/m3] | viscosity ([2]; 293.15 K) [mPa·s] | mass density ([2]; 293.15 K) [kg/m3] | viscosity ([2]; 298.15 K) [mPa·s] | mass density ([2]; 298.15 K) [kg/m3] | viscosity ([2]; 303.15 K) [mPa·s] | mass density ([2]; 303.15 K) [kg/m3] | viscosity ([2]; 308.15 K) [mPa·s] | mass density ([2]; 308.15 K) [kg/m3] | viscosity ([2]; 313.15 K) [mPa·s] | mass density ([2]; 313.15 K) [kg/m3]
1 | CCCCC1CCCCC1 [butylcyclohexane] | 1.296 ± 0.014 | 799.44 ± 0.15 | 1.196 ± 0.013 | 795.7 ± 0.15 | 1.107 ± 0.013 | 791.95 ± 0.15 | 1.027 ± 0.013 | 788.19 ± 0.15 | 0.958 ± 0.012 | 784.41 ± 0.15 |  |  |  |  |  |  |  |  |  | 
2 | CCCCCCC [heptane] | 0.421 ± 0.01 | 683.99 ± 0.17 | 0.398 ± 0.01 | 679.74 ± 0.18 | 0.378 ± 0.01 | 675.41 ± 0.18 | 0.352 ± 0.01 | 671.12 ± 0.18 | 0.337 ± 0.01 | 666.92 ± 0.18 |  |  |  |  |  |  |  |  |  | 
3 | CCCCCCC [heptane] + CCCCC1CCCCC1 |  |  |  |  |  |  |  |  |  |  | 0.421 ± 0.01 | 683.99 ± 0.17 | 0.398 ± 0.01 | 679.74 ± 0.18 | 0.378 ± 0.01 | 675.41 ± 0.18 | 0.352 ± 0.01 | 671.12 ± 0.18 | 0.337 ± 0.01 | 666.92 ± 0.18
4 | CCCCCCCC [octane] | 0.546 ± 0.011 | 702.86 ± 0.17 | 0.521 ± 0.011 | 698.85 ± 0.17 | 0.49 ± 0.011 | 694.8 ± 0.17 | 0.467 ± 0.011 | 690.73 ± 0.17 | 0.442 ± 0.011 | 686.63 ± 0.17 |  |  |  |  |  |  |  |  |  | 
5 | CCCCCCCCCCCCCC [tetradecane] | 2.329 ± 0.019 | 763.09 ± 0.15 | 2.096 ± 0.018 | 759.57 ± 0.15 | 1.898 ± 0.017 | 756.03 ± 0.15 | 1.729 ± 0.016 | 752.51 ± 0.16 | 1.584 ± 0.015 | 748.98 ± 0.16 |  |  |  |  |  |  |  |  |  | 
6 | CCCCCCCCCCCCCC [tetradecane] + CCCCC1CCCCC1 |  |  |  |  |  |  |  |  |  |  | 2.329 ± 0.019 | 763.09 ± 0.15 | 2.096 ± 0.018 | 759.57 ± 0.15 | 1.898 ± 0.017 | 756.03 ± 0.15 | 1.729 ± 0.016 | 752.51 ± 0.16 | 1.584 ± 0.015 | 748.98 ± 0.16

Continued, values first:

Row | viscosity ([1]; 293.15 K) [mPa·s] | mass density ([1]; 293.15 K) [kg/m3] | viscosity ([1]; 298.15 K) [mPa·s] | mass density ([1]; 298.15 K) [kg/m3] | viscosity ([1]; 303.15 K) [mPa·s] | mass density ([1]; 303.15 K) [kg/m3] | viscosity ([1]; 308.15 K) [mPa·s] | mass density ([1]; 308.15 K) [kg/m3] | viscosity ([1]; 313.15 K) [mPa·s] | mass density ([1]; 313.15 K) [kg/m3] | viscosity ([2]; 293.15 K) [mPa·s] | mass density ([2]; 293.15 K) [kg/m3] | viscosity ([2]; 298.15 K) [mPa·s] | mass density ([2]; 298.15 K) [kg/m3] | viscosity ([2]; 303.15 K) [mPa·s] | mass density ([2]; 303.15 K) [kg/m3] | viscosity ([2]; 308.15 K) [mPa·s] | mass density ([2]; 308.15 K) [kg/m3] | viscosity ([2]; 313.15 K) [mPa·s] | mass density ([2]; 313.15 K) [kg/m3] | SMILES
7 | 0.93 ± 0.012 | 730.52 ± 0.16 | 0.864 ± 0.012 | 726.76 ± 0.16 | 0.806 ± 0.012 | 722.97 ± 0.16 | 0.755 ± 0.011 | 719.17 ± 0.16 | 0.709 ± 0.011 | 715.36 ± 0.17 |  |  |  |  |  |  |  |  |  |  | CCCCCCCCCC [decane]
8 |  |  |  |  |  |  |  |  |  |  | 0.93 ± 0.012 | 730.52 ± 0.16 | 0.864 ± 0.012 | 726.76 ± 0.16 | 0.806 ± 0.012 | 722.97 ± 0.16 | 0.755 ± 0.011 | 719.17 ± 0.16 | 0.709 ± 0.011 | 715.36 ± 0.17 | CCCCCCCCCC [decane] + CCCCC1CCCCC1
9 | 1.5 ± 0.015 | 749 ± 0.16 | 1.376 ± 0.014 | 745.38 ± 0.16 | 1.265 ± 0.013 | 741.75 ± 0.16 | 1.167 ± 0.013 | 738.12 ± 0.16 | 1.081 ± 0.013 | 734.48 ± 0.16 |  |  |  |  |  |  |  |  |  |  | CCCCCCCCCCCC [dodecane]
10 |  |  |  |  |  |  |  |  |  |  | 1.5 ± 0.015 | 749 ± 0.16 | 1.376 ± 0.014 | 745.38 ± 0.16 | 1.265 ± 0.013 | 741.75 ± 0.16 | 1.167 ± 0.013 | 738.12 ± 0.16 | 1.081 ± 0.013 | 734.48 ± 0.16 | CCCCCCCCCCCC [dodecane] + CCCCC1CCCCC1
11 | 0.725 ± 0.011 | 717.88 ± 0.16 | 0.679 ± 0.011 | 714 ± 0.17 | 0.639 ± 0.011 | 710.1 ± 0.17 | 0.604 ± 0.011 | 706.19 ± 0.17 | 0.572 ± 0.011 | 702.26 ± 0.17 |  |  |  |  |  |  |  |  |  |  | CCCCCCCCC [nonane]
12 |  |  |  |  |  |  |  |  |  |  | 0.725 ± 0.011 | 717.88 ± 0.16 | 0.679 ± 0.011 | 714 ± 0.17 | 0.639 ± 0.011 | 710.1 ± 0.17 | 0.604 ± 0.011 | 706.19 ± 0.17 | 0.572 ± 0.011 | 702.26 ± 0.17 | CCCCCCCCC [nonane] + CCCCC1CCCCC1
13 |  |  |  |  |  |  |  |  |  |  | 0.546 ± 0.011 | 702.86 ± 0.17 | 0.521 ± 0.011 | 698.85 ± 0.17 | 0.49 ± 0.011 | 694.8 ± 0.17 | 0.467 ± 0.011 | 690.73 ± 0.17 | 0.442 ± 0.011 | 686.63 ± 0.17 | CCCCCCCC [octane] + CCCCC1CCCCC1
